Source: patent US8207188B2, “Treatment of diseases modulated by a H4 receptor agonist” (priority 2006, dated 2012)
Entries after “also recorded” stand apart in the source; their conditions may differ.

Columns and labels:
[1] = Reintroduction of causal food allergen in food allergy patients; format: in vivo, human; conditions: baseline patients treated with one drug alone
Excerpt: Allergens tested came from either […], or ALLERBIO.
The direct test with the Nutella® was strongly positive for allergy. This patient was hospitalized in two occasions for the same dramatic allergic reaction to Nutella® spread. Furthermore, the patient presented allergies to pneumoallergens.
Continuation of the above treatment for over 8 months afforded reversal of allergic and digestive symptoms due to food allergy.
The patient under study had survived two cases of anaphylactic shock due to ingestion of shrimps. […] Later the patient was able to ingest five shrimps without any local signs and no global reaction.
Baseline patients had signs of food allergies and the food allergy symptoms were not adequately managed with an H1 antagonist and cromoglycate. A group of 15 patients presenting signs of food allergies is tested with allergens such as the following: peanut, milk, tomato, potato, flour of wheat, soybean, fish, and shrimp. Allergens tested came from either […], or ALLERBIO.
All patients had history of hospitalization and reactions such as Quincke's edema and asthma crisis. Most of the causal allergens were peanut (six patients), egg (four patients) and soybean (five patients) of them (with other several positive food allergens at different degrees of reaction). […]

recombinant human HDC = molecular target: T1, recombinant human HDC (Homo sapiens, UniProt P19113); assay: Human-HDC activity determination (14CO2 from L-[U-14C]histidine); format: biochemical; conditions: 10 μM final
T1 construct: The DNA encoding for residues 1-512 of human HDC; GST (fusion partner of the pGEX-6P-1 vector) (N, cleaved yes); made in house; host or cells: Escherichia coli BL21(DE3)pLysS
T1 sequence (P19113 1-512): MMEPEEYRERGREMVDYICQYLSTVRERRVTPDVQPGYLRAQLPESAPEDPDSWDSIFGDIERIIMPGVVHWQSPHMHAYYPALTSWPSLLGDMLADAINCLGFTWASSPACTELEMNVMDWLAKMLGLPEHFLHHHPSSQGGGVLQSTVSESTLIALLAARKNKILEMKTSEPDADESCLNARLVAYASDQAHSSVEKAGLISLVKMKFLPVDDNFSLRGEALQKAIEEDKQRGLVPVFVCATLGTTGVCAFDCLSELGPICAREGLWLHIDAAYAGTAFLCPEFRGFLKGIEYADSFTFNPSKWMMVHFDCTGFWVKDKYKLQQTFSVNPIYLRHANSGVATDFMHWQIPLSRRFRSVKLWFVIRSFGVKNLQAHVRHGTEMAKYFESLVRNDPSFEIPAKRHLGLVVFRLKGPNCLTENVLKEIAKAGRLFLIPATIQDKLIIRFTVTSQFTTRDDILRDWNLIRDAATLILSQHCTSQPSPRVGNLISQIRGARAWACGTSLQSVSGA
Excerpt: The DNA encoding for residues 1-512 of human HDC was subcloned in the pGEX-6P-1 vector (GE-Healthcare). The recombinant plasmid transformed into the Escherichia coli BL21(DE3)pLysS strain. Transformed cultures were induced to express the HDC 1/512, which was purified by affinity chromatography using Glutathione sepharose (GE-Healthcare). 1/512 HDC was released from the fusion protein bound to the affinity chromatography support by digestion with the Pre-Scission™ protease (GE-Healthcare). The final preparations were dissolved in 50 mM potassium phosphate, 0.1 mM PLP, pH 7.0. Purity of the HDC 1/512 construct was checked by Coomassie blue staining and Western blotting, and was higher than 95% in the final preparations.
HDC activity was assayed, as described in Engel at al. (1996) Biochem J. 320: 365-368, by measuring the production of ^14CO2 from L-[U-^14C]histidine (GE-Healthcare) in a mixture containing 0.2 mM dithiothreitol, 10 μM PLP, 10 mg/ml poly(ethylene glycol)-300, 100 mM potassium phosphate, pH 6.8, and purified protein in a total volume of 100 μL. When recombinant HDC was used, the concentration of L[U-^14C]histidine was 13.3 μM (with ⅓ isotopic dilution). The released ^14CO2 was measured as previously described for HDC activity determinations (Urdiales et al. (1992) FEBS Lett. 305, 260-264).
10 μM concentration of each isomer, A and B (A corresponds to the isolated pure isomer eluting at 5.9 minutes, B corresponds to the isolated pure isomer eluting at 7.1 minutes of the chromatogram shown in FIG. 4 (bottom)) and their corresponding racemic mixture (starting material prior to separating the individual isomers, indicated as A+B) along with 4 μg of recombinant human HDC were used to asses the inhibitory effect of each isomer and the mixture on the enzymatic conversion of histidine to histamine. Results are presented as means of duplicates samples.

[2] = system: hematopoietic progenitor cells; assay: CFU of hematopoietic progenitor cells in the presence of Ara-C; format: cell-based; conditions: listed as TRQ
Excerpt: Ara-C is a chemotherapeutic agent that kills cancel cells (or actively dividing cells).

- inhibition at 10 µM (recombinant human HDC): 17.5%
- DPM (recombinant human HDC; 4 μg recombinant human HDC, means of duplicates, control 12340): 10176 DPM
- Activity (recombinant human HDC; control 0.35): 0.29 µmol/h
- Specific activity (recombinant human HDC; control 87.00): 71.74 μmole/h · mg prot
- remaining activity at 10 µM (recombinant human HDC; read-out: % of control): 82.5%
Structure (SMILES): CCOc1c(N)c2c(c(OCC)c1OCC)C(C1c3c(cc4c(c3OC)OCO4)CCN1C)OC2=O (racemic) [Tritoqualine, 7-Amino-4,5,6-triethoxy-3-(5,6,7,8-tetrahydro-4-methoxy-6-methyl-1,3-dioxolo[4,5-g]isoquinolin-5-yl) phthalide]
- management of food allergy symptoms with the single drug [1]: did not yield satisfactory management
- protection of cells / cell CFU in the presence of Ara-C [2]: provides protection to the cells; also recorded: cell CFU remains high
